Measurements published in EP0982397A1, “Inhibition of contact system activation” (Stichting Sanquin Bloedvoorziening, priority 1998, dated 2000).
Peptide text beside a SMILES is read from it.

Tests used:
[1] = target: FXII; assay: Binding of 125I-FXII to kaolin; design: species or system human
Procedure: • Figure 1: Effects of mAb KOK5 on activation of purified FXII. • A: Activation by kallikrein: Twenty-five µl of prewarmed FXII (125 nM), 25 µl of serial dilutions of mAb KOK5, 25 µl of prewarmed kallikrein (25 nM) and 25 µl of buffer yielding final concentrations of 50 mM Tris-HCl, 150 mM NaCl, 0.1% (wt/vol) Tween-20, pH 7.8, were incubated for 30 min at 37°C. Thereafter, 50 µl of assay mixture containing the chromogenic substrate S-2302 were added and the increase in absorbance at 405 nm at 37°C was recorded. Results are expressed as percentage of the total amount of FXII present in the mixture (as determined by limited digestion with 10 nM trypsin), and represent the mean ± SE of two experiments. […] Thereafter, 50 µl of assay mixture containing S-2302 were added and the increase in absorbance at 405 nm at 37°C was recorded. […] The reaction was stopped by adding 120 µl of stop buffer (PBS, 0.1 mg/ml SBTI, Polybrene 0.05% wt/vol) and the amount of FXIIa-C1-inhibitor (+---+), kallikrein-C1-inhibitor (o- -o) and factor XIa-C1-inhibitor (●- -●) complexes generated was measured. Results, expressed as percentage of the maximum amount of complexes generated in pooled plasma by DS500 (50 µg/ml), represent the mean values ± S.D. from three different experiments. • Figure 3. […] Binding was expressed as the percentage of the total counts that were found in the pellet in the absence of mAbs. […]

[2] = tested on: contact system; assay: Inhibition by synthetic peptides of contact system activation in EDTA-plasma induced by kaolin; type: biochemical, human; details: Activator kaolin
Procedure: • Figure 1: Effects of mAb KOK5 on activation of purified FXII. • A: Activation by kallikrein: Twenty-five µl of prewarmed FXII (125 nM), 25 µl of serial dilutions of mAb KOK5, 25 µl of prewarmed kallikrein (25 nM) and 25 µl of buffer yielding final concentrations of 50 mM Tris-HCl, 150 mM NaCl, 0.1% (wt/vol) Tween-20, pH 7.8, were incubated for 30 min at 37°C. Thereafter, 50 µl of assay mixture containing the chromogenic substrate S-2302 were added and the increase in absorbance at 405 nm at 37°C was recorded. Results are expressed as percentage of the total amount of FXII present in the mixture (as determined by limited digestion with 10 nM trypsin), and represent the mean ± SE of two experiments. […] Thereafter, 50 µl of assay mixture containing S-2302 were added and the increase in absorbance at 405 nm at 37°C was recorded. […] The reaction was stopped by adding 120 µl of stop buffer (PBS, 0.1 mg/ml SBTI, Polybrene 0.05% wt/vol) and the amount of FXIIa-C1-inhibitor (+---+), kallikrein-C1-inhibitor (o- -o) and factor XIa-C1-inhibitor (●- -●) complexes generated was measured. […] In addition 50 µl of purified FXII (500 nM) were first incubated for 2 min with kaolin and then with serial dilutions of mAb KOK5 for 15 min (+---+); whereafter the residual FXII clotting activity was measured. Results are expressed as percentage of inhibition compared to the clotting activity measured in the absence of mAbs and are the mean ± SE of two experiments. • Figure 4. […] After 10 min at room temperature tubes were centrifuged for 2 min at 10,000 g and the pellets were counted for radioactivity. Binding was expressed as the percentage of the total counts that were found in the pellet in the absence of mAbs. […] Bound FXII was detected by subsequent incubation with ^125I-anti-FXII antibodies. Results are expressed as percentage of the ^125I-anti-FXII added and represent the means of two experiments. • Figure 6. […]

[3] = tested on: contact system; assay: Inhibition by synthetic peptides of contact system activation in EDTA-plasma induced by DS500; type: biochemical, human; details: Activator DS500
Procedure: • Figure 1: Effects of mAb KOK5 on activation of purified FXII. • A: Activation by kallikrein: Twenty-five µl of prewarmed FXII (125 nM), 25 µl of serial dilutions of mAb KOK5, 25 µl of prewarmed kallikrein (25 nM) and 25 µl of buffer yielding final concentrations of 50 mM Tris-HCl, 150 mM NaCl, 0.1% (wt/vol) Tween-20, pH 7.8, were incubated for 30 min at 37°C. Thereafter, 50 µl of assay mixture containing the chromogenic substrate S-2302 were added and the increase in absorbance at 405 nm at 37°C was recorded. Results are expressed as percentage of the total amount of FXII present in the mixture (as determined by limited digestion with 10 nM trypsin), and represent the mean ± SE of two experiments. […] Thereafter, 50 µl of assay mixture containing S-2302 were added and the increase in absorbance at 405 nm at 37°C was recorded. […] The reaction was stopped by adding 120 µl of stop buffer (PBS, 0.1 mg/ml SBTI, Polybrene 0.05% wt/vol) and the amount of FXIIa-C1-inhibitor (+---+), kallikrein-C1-inhibitor (o- -o) and factor XIa-C1-inhibitor (●- -●) complexes generated was measured. Results, expressed as percentage of the maximum amount of complexes generated in pooled plasma by DS500 (50 µg/ml), represent the mean values ± S.D. from three different experiments. • Figure 3. […] In addition 50 µl of purified FXII (500 nM) were first incubated for 2 min with kaolin and then with serial dilutions of mAb KOK5 for 15 min (+---+); whereafter the residual FXII clotting activity was measured. Results are expressed as percentage of inhibition compared to the clotting activity measured in the absence of mAbs and are the mean ± SE of two experiments. • Figure 4. […] After 10 min at room temperature tubes were centrifuged for 2 min at 10,000 g and the pellets were counted for radioactivity. Binding was expressed as the percentage of the total counts that were found in the pellet in the absence of mAbs. […] Bound FXII was detected by subsequent incubation with ^125I-anti-FXII antibodies. Results are expressed as percentage of the ^125I-anti-FXII added and represent the means of two experiments. • Figure 6. […]

[4] = target: mAb KOK5; assay: cell-based or functional assay
[5] = read-out: FXIIa-C1inh (IC50 values)
[6] = read-out: FXIa-C1inh (IC50 values)
[7] = read-out: kal-C1inh (IC50 values)

IC50 relative to that of FXII itself (times higher) ([1]; inhibition of binding of 125I-FXII to kaolin)	IC50 ([1]; synthetic peptides, read-out: IC50, inhibition of binding of 125I-FXII to kaolin) [mM]	IC50 [2, 5] [mM]	IC50 [2, 6] [mM]	IC50 [2, 7] [mM]	IC50 [3, 5] [mM]	IC50 [3, 6] [mM]	IC50 [3, 7] [mM]	inhibition of FXII activation by kallikrein in the presence of mAb KOK5 (IC50) [4] [mM]	Molecule
10,000 times	0.9	7 ± 1.4	7.5 ± 0.5	6 ± 2.1	3.15 ± 0.85	6.75 ± 1.25	5.25 ± 2.7		C[C@@H](O)[C@H](NC(=O)[C@H](CS)NC(=O)[C@H](CCC(N)=O)NC(=O)[C@H](Cc1c[nH]cn1)NC(=O)[C@@H](N)CO)C(=O)N[C@@H](Cc1c[nH]cn1)C(=O)N[C@@H](CCCNC(=N)N)C(=O)N[C@@H](CCCCN)C(=O)N[C@@H](CS)C(=O)N[C@@H](Cc1ccc(O)cc1)C(=O)O [SHQCTHRKCY] (H-SHQCTHRKCY-OH)
								0.05	AEGEFRFQTPQWE [synthetic peptide …]
